Assay results: PubChem BioAssay (NCI)
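Protocol summary: plate cells (96-well), add compound at 5 concentrations, incubate 48 h, interpolate endpoints linearly. Abbreviation: GI50, concentration required for 50% inhibition of growth. TGI marks complete inhibition of growth.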

What was measured:
Assay in all cases: NCI-60 cell line screen, 48 h
[1] = test system: HCT-116 colon
[2] = test system: SK-MEL-5 melanoma
[3] = test system: HCT-15 colon
[4] = test system: SF-268 CNS
[5] = test system: NCI-H226 lung
[6] = test system: CAKI-1 renal
[7] = test system: OVCAR-8 ovarian
[8] = test system: MCF7 breast
[9] = test system: A498 renal
[10] = test system: HOP-92 NSCLC

SMILES	GI50 [1] [µM]	TGI [1] [µM]	GI50 [2] [µM]	TGI [2] [µM]	GI50 [3] [nM]	TGI [3] [µM]	GI50 [4] [µM]	TGI [4] [µM]	GI50 [5] [µM]	TGI [5] [µM]	GI50 [6] [µM]	TGI [6] [µM]	GI50 [7] [µM]	TGI [7] [µM]	GI50 [8] [µM]	TGI [8] [µM]	GI50 [9] [µM]	TGI [9] [µM]	GI50 [10] [µM]	TGI [10] [µM]
O=C(O)c1cc2cc(OCc3ccccc3)c(OCc3ccccc3)cc2[nH]1	17.1	30.8	20.1	47.3	16300	36.4	26.4	79.7	17.1	35.7	20.7	51.3	26.9	95.9	21.8	55.1				
O=C(N/N=C/c1ccccc1O)C(=O)Nc1ccc(F)cc1	3.19	> 100	5.62	> 100	1860	> 100	2.77	> 100	16	> 100	2.24	22	4.3	> 100	3.52	> 100	83.4	> 100		
S=C1Nc2ccc(Cl)cc2C2(c3ccccc3)N3CCN=C3NN12 (stereo unspecified)	29.4	> 100	28.1	45.4	34000	> 100	28.6	> 100	33.9	> 100	48.8	> 100	52.3	> 100	27.4	> 100			32.3	> 100
COc1ccccc1C#Cc1ccccc1C#CCCCCCC#Cc1ccccc1C#Cc1ccccc1OC	58	> 100	> 100	> 100	40900	> 100	96.5	> 100	> 100	> 100	41.2	> 100	> 100	> 100	17.3	> 100	> 100	> 100		
Cc1cc(NS(=O)(=O)c2ccc(NC(=O)c3cccc4c(Nc5ccc(S(=O)(=O)N=C(N)N)cc5)c5ccccc5nc34)cc2)no1		> 100		> 100		> 100		> 100		> 100		> 100		> 100				> 100		> 100
C=C1C(=O)O[C@H]2[C@H]1CC/C(COC(=O)CSCC(=O)OC/C1=C/CC[C@@]3(C)O[C@H]3[C@H]3OC(=O)C(=C)[C@@H]3CC1)=C\CC[C@@]1(C)O[C@@H]21	0.466	1.59	1.73	3.77	1250	2.69	3.28	13.9	2.28	6.59	1.57	3	1.48	4.21	0.48	2.33			1.43	3.6
Fc1ccc(C2SCc3nc4ccccc4n32)cc1 (stereo unspecified)		> 100		38		> 100		> 100		92.4		> 100		> 100						62
COc1ccc(-c2ccc(-c3ccc(-c4ccc(C(=N)N)cc4)s3)s2)cc1OC			14.7	60.2			19.5	50.9	18.5	58.4	15.1	30.4	3.76	> 100	0.39	2.1	11	27.8	2.18	6.1
O=C(OCC1CO1)c1cccs1 (stereo unspecified)				> 100		> 100		> 100				> 100		> 100						> 100
COc1ccc(C(=O)c2cc3c(OC)c(OC)c(OC)cc3[nH]2)cc1	3.22	> 100	2.2	5.62	2230	> 100	68.1	> 100	> 100	> 100			33.7	> 100	1.32	> 100	6.45	47.7	9.24	> 100
Nc1c(C(=O)Nc2ccccc2)[n+]([O-])c2ccccc2[n+]1[O-]				29.1		28.2		> 100		76.3		16.8		> 100				31		32.1
C=C1C(=O)O[C@H]2[C@H]1CC/C(COC(=O)NCCc1c[nH]c3ccc(OC)cc13)=C\CC[C@@]1(C)O[C@@H]21	1.46	3.11	3.13	10.6	1140	2.45	3	13.1	1.88	3.61	1.49	3.32	1.97	5.23			10.5	22.7	1.19	2.87
COc1cc2c(cc1O)CC13CCC(=O)N1CCc1cc(OC)c(O)c-2c13 (stereo unspecified)		> 68.1		> 68.1		> 68.1		> 68.1		> 68.1		> 68.1		> 68.1				> 68.1		> 68.1
CCN(CCCl)CCCNc1c2ccccc2nc2ccc(OC)cc12		1.16	626			1.86	254		580		133			1.63				356	180	
CC(=O)OC1(C)C(=O)OC1(C)C(C)=O (stereo unspecified)		> 100		> 100		> 100		> 100		> 100		> 100		> 100				> 100		> 100
CCCCCCCCCCCCSC(=N)N	3.86	14.9	12.6	28.2	2960	11.5	7.82	25.8	18.5	44.5	3.79	14.4	5.77	23.4	3.44	15.5	15.3	31.4		
